Laboratory results: patent US20190201508A1, “METHODS FOR TREATING CANCERS USING ACE INHIBITORS, ARB, OR CELECOXIB AND OLMESARTAN” (Marina Biotech, Inc., priority 2016, published 2019)

Key:
[1] = tested on: MDA-MB-435 xenograft; experiment: MDA-MB-435 xenograft tumor growth and tumor burden; type: in vivo, CB-17 SCID mice; conditions: MDA-MB-435 model; LIS 15 mg/kg, 5 consecutive days for 3 weeks
Procedure: (§1) Tumors were monitored 2-3 times per week with digital calipers. Once tumors reached 1500 mm3, the mice were sacrificed. Tumors from MDA-MB-435-Luc and SUM149-RR were snap frozen and ipsilateral lymph nodes and lungs were collected for assessing metastatic burden and incidence by measuring luciferase expression per organ and normalized to total protein. Difference in incidence or burden as compared to the control was assessed by a Fisher exact test, or a Mann-Whitney test.
(§2) Methods: Three anti-hypertensive drugs (Lisinopril [LIS], Olmesartan medoxomil [OLM] and Hydrochlorothiazide [HCTZ]) were evaluated for tumor growth suppression and metastatic spread in xenograft models of inflammatory breast cancer/SUM149, melanoma/MDA-MB-435 and glioblastoma/U87. Luciferase-tagged SUM149 and MDA-MB-435 cell lines were used to determine the incidence and the burden of locoregional and systemic spread. […] Mice were monitored twice a week for 9-16 weeks for percent weight loss, tumor volume and survival outcome. Metastatic tumor burden and incidence was measured as luciferase expression in lymph nodes and lungs and normalized to total protein.
Tumors were monitored 2-3 times per week with digital calipers. Once tumors reached 1500 mm3, the mice were sacrificed.

[2] = tested on: inflammatory breast cancer/SUM149, melanoma/MDA-MB-435 and glioblastoma/U87 xenografts; experiment: Tumor growth suppression across xenograft models (pooled statements); type: in vivo, mice; conditions: for effect on tumor growth (in words): single agents, cancer models studied (breast cancer, melanoma, glioblastoma)
Procedure: (§3) Luciferase-tagged SUM149 and MDA-MB-435 cell lines were used to determine the incidence and the burden of locoregional and systemic spread. Mice were monitored twice a week for 9-16 weeks for percent weight loss, tumor volume and survival outcome. Metastatic tumor burden and incidence was measured as luciferase expression in lymph nodes and lungs and normalized to total protein.
Subcutaneous melanoma xenograft tumor model: MDA-MB-435-Luc: Female SCID mice were implanted with 4×10^6 MDA-MB-435-Luciferase tumor cells in 50% Matrigel subcutaneously on the left flank.
Orthotopic human inflammatory breast cancer model: SUM149-RR: Female CB-17 SCID mice were implanted in the mammary fat pad with 4×10^6 SUM149-RR tumor cells in 50% Matrigel.
T/C (%) was calculated as the mean RTV (relative tumor volume) of treated tumors (T) divided by the mean RTV of control tumors (C)×100%.
as §1
Methods: Three anti-hypertensive drugs (Lisinopril [LIS], Olmesartan medoxomil [OLM] and Hydrochlorothiazide [HCTZ]) were evaluated for tumor growth suppression and metastatic spread in xenograft models of inflammatory breast cancer/SUM149, melanoma/MDA-MB-435 and glioblastoma/U87. Luciferase-tagged SUM149 and MDA-MB-435 cell lines were used to determine the incidence and the burden of locoregional and systemic spread. CB-17 SCID mice were implanted either subcutaneously (MDA-MB-435 and U87) or orthotopically (SUM149) with 4×10^6 cancer cells and oral administration of test agents for 3 weeks was initiated on post-tumor inoculation Day 7. Mice were monitored twice a week for 9-16 weeks for percent weight loss, tumor volume and survival outcome. Metastatic tumor burden and incidence was measured as luciferase expression in lymph nodes and lungs and normalized to total protein.
Subcutaneous human melanoma xenograft tumor model: MDA-MB-435-Luciferase: Female SCID mice were implanted with 4×10^6 MDAMB-435-Luc tumor cells in 50% Matrigel subcutaneously on the left flank. Seven days post implantation, tumor-bearing mice in subgroups received either saline, Lisinopril (LIS, 15 mg/kg), Olmesartan (OLM, 30 mg/kg); or Hydrochlorothiazide (HCTZ, 10 mg/kg) for 5 consecutive days for 3 weeks.
Female CB-17 SCID mice were implanted in the mammary fat pad with 4×10^6 SUM149-RR tumor cells in 50% Matrigel. Seven days post implantation, mice in subgroups of 5 received either saline, LIS (15 mg/kg), OLM (30 mg/kg) or HCTZ (10 mg/kg) for 5 days/wk for 3 weeks.
Subcutaneous human U87-MG glioblastoma model: 3×10^6 U87 glioblastoma cells were injected into the right flank of Balb/c nude mice and tumor-bearing (50-250 mm3) mice were randomized into 10 groups (10 mice/group) and the antitumor activities of OLM were evaluated following daily PO administration (30 or 60 mg/kg, QD×21). T/C (%) was calculated as the mean RTV (relative tumor volume) of treated tumors (T) divided by the mean RTV of control tumors (C)×100%.
as §1, with “The tumor was” for “Tumors from MDA-MB-435-Luc and SUM149-RR were”

[3] = tested on: tumor blood vessels (BV); experiment: Tumor blood vessel density and normalization (FIG. 6A/6B); type: in vivo; conditions: control tumors had low BV density and necrosis
[4] = tested on: SUM149-RR tumor cells; experiment: Orthotopic human inflammatory breast cancer model SUM149-RR, lymph node metastatic burden (luciferase); type: in vivo, CB-17 SCID mice; conditions: for change in ILN burden versus control (in words): single agents or combination with CEL
Procedure: as §3, §1, §2
Seven days post implantation, mice in subgroups of 5 received either saline, LIS (15 mg/kg), OLM (30 mg/kg) or HCTZ (10 mg/kg) for 5 days/wk for 3 weeks.
as §1, with “The tumor was” for “Tumors from MDA-MB-435-Luc and SUM149-RR were”

| SMILES | reduction in tumor burden [1] | effect on tumor growth (in words) [2] | effect on tumor growth (in words) ([2]; listed as Lisinopril) | effect on tumor blood vessels (BV) ([3]; FIG. 6A, single agents) | effect on tumor blood vessels (BV) ([3]; FIG. 6B, in combination) | fold decrease in ILN tumor burden versus saline control ([4]; OLM 30 mg/kg alone) [fold] | average tumor burden in the ipsilateral lymph nodes (ILN) ([4]; OLM 30 mg/kg, saline control 17.6±8.6, p-value=0.01 by Mann-Whitney test) | lymph node burden ([4]; OLM versus control 17.6±8.6, P=0.01) | change in ILN burden versus control (in words) [4] | inhibition of tumor growth ([2]; range over all three xenograft models (SUM149, MDA-MB-435, U87)) | effect on tumor growth (in words) ([2]; listed as olmesartan) | effect on tumor growth (in words) ([2]; listed as HTCZ) |
| --- | --- | --- | --- | --- | --- | --- | --- | --- | --- | --- | --- | --- |
| NCCCC[C@H](N[C@@H](CCc1ccccc1)C(=O)O)C(=O)N1CCC[C@H]1C(=O)O [LIS, Lisinopril] | significant reduction in tumor burden | significant inhibition of tumor growth | showed tumor growth suppression | no major effect | no major effect | – | – | – | – | – | – | – |
| CCCc1nc(C(C)(C)O)c(C(=O)OCc2oc(=O)oc2C)n1Cc1ccc(-c2ccccc2-c2nn[nH]n2)cc1 [OLM, (5-methyl-2-oxo-2H-1,3-dioxol-4-yl)methyl 4-(2-hydroxypropan-2-yl)-2-propyl-1-({4-[2-(2H-1,2,3,4-tetrazol-5-yl)phenyl]phenyl}methyl)-1H-imidazole-5-carboxylate] | – | significant inhibition of tumor growth | – | facilitated the normalization and stabilization of tumor BVs | facilitated the normalization and stabilization of tumor BVs | 7.1 | 2.4±0.6 ×104 RLU per mg of protein | 2.4±0.6 ×10^4 RLU/mg of protein | statistically significant decrease in ILN burden | 50-61% | showed tumor growth suppression | – |
| NS(=O)(=O)c1cc2c(cc1Cl)NCNS2(=O)=O [HCTZ, Hydrochlorothiazide] | – | no effect on tumor growth | – | – | – | – | – | – | not | – | – | did not show the same effect |
